In patent publication US10765654B2, “Methods and compounds for treating cancer” (University of Vermont and State Agricultural College, priority 2011, dated 2020):
Peptide text beside a SMILES is read from it.

How the values were obtained:
Type in all cases: cell-based, human
[1] = tested on: OG33 oligodendroglioma stem cells; experiment: Cell cycle profile by propidium iodide staining and flow cytometry; conditions: 100 μM NAA or 10 μM NAAG
Method: (§1) Cell cycle profiles were visualized by propidium iodide (PI) staining as previously described (Perez-Martinez & Jaworski (2005) J Neurosci 25:4917-29). OG35, OG33 and mouse neural stem cells were grown in stem cell medium (SCM; DMEM/F12, B27, 20 ng/ml ea bFGF & EGF) while the oligodendrocyte progenitor cell line, Oli-neu (Jung et al. (1995) Eur J Neurosci 7:1245-65) was grown in Sato's medium (DMEM supplemented with 100 μg/ml apotransferrin, 5 μg/ml insulin, 60 nM triiodothyronine, 30 nM sodium selenite, 100 μM putrescine, 1% horse serum, and 25 μg/ml G418). […] after 0.25% (v/v) GTA treatment, cells were trypsinized, recovered by centrifugation, re-suspended (10^6 cells/ml) in a low-salt PI solution ([…] polyethylene glycol PEG 8000, […], 180 U/ml RNase A, 0.1% Triton X-100, and 4 mM sodium citrate), and incubated at 37° C. for 20 minutes. After addition of an equal volume of high-salt PI solution ([…] polyethylene glycol PEG 8000, […], 180 U/ml RNase A, 0.1% Triton X-100, and 400 mM NaCl) and incubation at 4° C. for 1 hour, cell cycle profiles were recorded by flow cytometry (BD LSR 11 Flow Cytometer, BD Biosciences; Franklin Lakes, N.J.).

[2] = tested on: ASPA in OG35 cells; experiment: Immunocytochemistry of ASPA localization after NAA or NAAG; conditions: 100 μM NAA or 10 μM NAAG; 5 days in DM; OG35 (primarily nuclear)
Method: (§2) Immunocytochemistry was performed as described (Perez-Martinez & Jaworski (2005) J Neurosci 25:4917-29). Briefly, OG33 and OG35 cells were plated into differentiaion medium (DMEM, 10% FBS), fixed with 2% paraformaldehyde, and ASPA expression localized immunocytochemically using rabbit anti-mouse ASPA (1,500×) (Madhavarao et al., 2004 Comp Neurol 472:318-29) and Cy-3 conjugated secondary antibody (500×; Jackson ImmunoResearch, West Grove, Pa.).

[3] = tested on: ASPA in OG33 cells; experiment: as above; conditions: 100 μM NAA or 10 μM NAAG; 5 days in DM; OG33 (cytosolic)
Method: as §2

[4] = tested on: ASPA in OG33 cells; experiment: Western blot of ASPA expression; conditions: NAA and NAAG treatment (not shown)
Method: SDS-PAGE (25 μg protein from whole cell lysates) and western blotting were performed as previously described (Lluri et al. 2008 Exp Cell Res 314:11-24). Cytosol and nuclear fractions were isolated according to standard protocols. Antibodies: rabbit anti-mouse ASPA (2,000×), (Madhavarao et al. 2004 Comp Neurol 472:318-29) rabbit anti-human ASPA (5,000×; GTX1338; GeneTex, Irvine, Calif.), goat anti-human actin (1,000×, sc-1616, Santa Cruz Biotechnology, Santa Cruz, Calif.), rabbit anti-human GAPDH (5,000×, sc-25778, Santa Cruz Biotechnology, Santa Cruz, Calif.), mouse anti-human histone H1 (250×, sc-8030; Santa Cruz Biotechnology, Santa Cruz, Calif.). Species-specific HRP—(3,000×) conjugated secondary antibodies were obtained from Jackson ImmunoResearch (West Grove, Pa.). Immunocomplexes were visualized by enhanced chemiluminescence (PerkinElmer Life Sciences; Boston, Mass.) and densitometry performed using Quantity One software (Bio-Rad; Hercules, Calif.).
SDS-PAGE (25 μg protein from whole cell lysates) and western blotting were performed as previously described in Example 1.

[5] = tested on: OG33 oligodendroglioma stem cells; experiment: Growth dynamics, trypan blue exclusion and manual counting; conditions: 100 μM NAA or 10 μM NAAG; SCM and DM; later time points up to 5 days
Method: (§3) Stem cell spheres from two oligodendroglioma stem cell lines (OG33 and OG35) were plated (at 10,000 cells per well of a 24-well plate) in the absence or presence of 100 μM N-acetylaspartate (NAA) or 10 μM N-acetylaspartylglutamate (NAAG) in stem cell medium (SCM) containing DMEM/F12 (Gibco/Life Technologies, Grand Island, N.Y.), B27 supplement (Gibco/Life Technologies, Grand Island, N.Y.), and 20 ng/ml each basic fibroblast growth factor (bFGF) and epidermal growth factor (EGF), or differentiation medium (DM) containing DMEM, 10% FBS. Medium, with fresh drug, was replenished every 48 hours. Growth dynamics were assessed using trypan blue exclusion and manual counting 1, 3, and 5 days after plating.

[6] = tested on: OG35 oligodendroglioma stem cells; experiment: as above; conditions: 100 μM NAA or 10 μM NAAG; stem cell medium (SCM) and differentiation medium (DM); later time points up to 5 days
Method: as §3

[7] = tested on: OG35 oligodendroglioma stem cells; experiment: Cell cycle profile by propidium iodide staining and flow cytometry; conditions: 100 μM NAA or 10 μM NAAG
Method: as §1

SMILES	OG33 cell number by flow cytometric cell cycle analysis [1]	ASPA spatial localization [2]	ASPA spatial localization [3]	Expression of novel 26 kDa ASPA species [4]	OG33 cell growth (cell number, manual counting) [5]	OG35 cell growth (cell number, manual counting) [6]	OG35 growth by flow cytometric cell cycle analysis (cells in G2/M and G0/G1) [7]
CC(=O)N[C@@H](CC(=O)O)C(=O)O [NAA, N-acetylaspartate]	no significant change	little effect	little effect	induced	only increased in SCM	increased in SCM and DM	
CC(=O)N[C@@H](CC(=O)O)C(=O)N[C@@H](CCC(=O)O)C(=O)O [NAAG, N-acetylaspartylglutamate] (Ac-Asp-Glu-OH)	no significant change	little effect	little effect	induced	only increased in SCM	increased in SCM and DM	promoted OG35 growth
